Marks after values point to notes of the source that are not given here. Each block holds one compound with its values, some of them ahead of it.
Assays:
Calvarial osteoblasts = test: Osteoblast alkaline phosphatase (ALP) activity; format: cell-based, rat; conditions: for ALP activity: calvarial osteoblasts, 10 days culture, FIG. 6
Protocol: (§1) Neonatal rat calvarial cell cultures are prepared as described previously (Chattopadhyay et al., Endocrinology 145:3451-62, 2004) using slight modification. Briefly, for calvarial osteoblast cultures, frontal and parietal bones from neonatal Sprague-Dawley rats (1-3 day old) were digested in 0.1% collagenase/0.1% dispase in α-MEM to obtain 5 sequential digests. The second through fifth digests are combined and grown to confluence at 37° C. and 5% CO2 in air in α-MEM, supplemented with 10% fetal bovine serum (FBS), 2 mM glutamine, 100 U/ml penicillin-streptomycin, non-essential amino acid solution and sodium pyruvate. These osteoblast cells were further used to test thirteen pure compounds designated as 1-13. During the course of culture, pre-osteoblasts undergo three characteristic stages of osteoblasts with the expression of stage specific genes. These are: • Proliferation & differentiation: Days 1-12 • Genes—cbfa1, Osterix, Alkaline phosphatase, • Collagen-1 • Extra-cellular matrix maturation: Days 12-18 • Genes—Osteocalcin, Osteopontin, Fibronectin • Mineralization: Days 14-35 • Feature—Calcification (nodule formation) Measurement of Osteoblast Alkaline Phosphatase (ALP) Activity
Calvarial osteoblasts cells were plated (1500 cells/well in 12 well plate) in the osteoblast differentiation medium and the culture was continued for 10 days with or without treatment with these compounds. This is the time when the ALP levels peak, and serves as an osteoblast differentiation marker. The cells at this point were washed twice with PBS and then plates were fixed by keeping them at −70° C. for 1 h, and then brought to room temperature to determine ALP activity. The rate of the reaction here is directly proportional to the enzyme activity, which itself is proportional to osteoblast differentiation. The O.D. was measured at 405 nm with a microplate reader.

Osteoblasts = test: Osteoblast growth / toxicity (MTT); format: cell-based, rat; conditions: FIG. 8; for growth / proliferation of the osteoblastic cells: 1 pM to 1 μM, 48 h
Protocol: as §1, with “Briefly,” for “Neonatal rat calvarial cell cultures are prepared as described previously (Chattopadhyay et al., Endocrinology 145:3451-62, 2004) using slight modification. Briefly,”
Many isoflavonoids at micromolar concentrations are known to inhibit osteoblast cell growth. Osteoblasts were cultured in the absence or presence of compounds (dissolved in 0.01% DMSO final concentration) at various concentrations (1 pM to 1 μM) for 48 h. Cells receiving vehicle (0.01% DMSO) served as control. After incubation, the cells were washed with PBS. Then, cells were treated with MTT solution (5 mg/10 mL in DMEM devoid of Phenol Red) for 4 h. Formazon crystals formed were dissolved in DMSO and O.D. was taken at 540 nm.

[1] = test system: bone morphogenetic protein (BMP-2); test: In vivo osteogenic efficacy: BMP-2 expression in calvaria by qPCR; design: species or system rat; conditions: calvaria of 1- to 2-day-old rats, 5.0 mg·kg−1·day−1 s.c. for 3 consecutive days, fold change over vehicle/untreated, FIG. 7
Description: The results are expressed as fold change over untreated cells (FIG. 7).

[2] = test system: bone marrow stromal cells; test: Mineralization of bone marrow stromal cells of estrogen deficient rats; format: in vivo, rat; conditions: estrogen deficient (OVx) rats vs OVx rats treated with vehicle; estrogen 2.5 μg/kg
[3] = test system: ovariectomized Balb/c mice; test: μCT trabecular microarchitecture after 8 weeks treatment of osteopenic OVx mice; format: in vivo, mouse; design: Tb. Th. / Tb. Sp.: unit not given here; conditions: for SMI / Tb. No. / Tb. Sp. / Tb. Th. / BV/TV: 8 weeks; for BV/TV: osteopenic OVx mice, mean ± S.D.
Protocol: The study was conducted in accordance with current legislation on animal experiments [Institutional Animal Ethical Committee (IAEC)] at C.D.R.I. Balb/c mice weighing ˜25-30 gm were either bilaterally ovariectomized (OVx) or exposed to a sham surgical procedure. After ovariectomy, mice were left for 30 days for osteopenia to develop. Mice were individually housed at 21° C., in 12-h light:12-h dark cycles. All mice had excess to normal chow diet and water ad libitum. […], treatment in the form of gavage (1.0 mg and 5.0 mg/kg body weight) was given daily. Equal numbers of OVx and sham operated mice served as the control, and were given vehicle. At the end of 8 weeks, mice were euthanized. At autopsy, both femur and tibia were dissected and separated from adjacent tissue, cleaned, and used for μCT measurements.

[4] = test system: ovariectomized (OVx) Sprague Dawley rats; test: μCT trabecular microarchitecture after 12 weeks treatment of OVx rats; format: in vivo, rat; conditions: for SMI / Tb. No. / Tb. Sp. / Tb. Th.: estradiol 2.5 μg·kg−1·day−1; for BV/TV: estradiol 2.5 μg·kg−1·day−1, mean ± S.D.
Protocol: The study was conducted in accordance with current legislation on animal experiments [Institutional Animal Ethical Committee (IAEC)] at C.D.R.I. […] Sprague Dawley rats weighing 180-200 gm were either bilaterally ovariectomized (OVx) or exposed to a sham surgical procedure. All rats were individually housed at 21° C., in 12-h light:12-h dark cycles. All rats had excess to normal chow diet and water ad libitum. After OVx, the rats were left for 12 weeks to develop osteopenia. […] Equal numbers of OVx and sham operated rats served as the control, and were given vehicle (20% ethanol). The rats were weighed each week. […] After twenty-four hours of fasting urine samples were collected in fresh containers, centrifuged at 2000 rpm at room temperature and stored at -20° C. until analyzed. Rats were then euthanized. At autopsy, blood samples were collected by cardiac puncture in tubes, and serum samples collected and frozen until analysis. Uteri were carefully excised, gently blotted, weighed, and fixed for histology and histomorphometry. About 5 mm pieces from the middle segment of each uterus were dehydrated in ascending grades of ethanol, cleared in xylene, and embedded in paraffin wax using standard procedures. Representative transverse sections (5 μm) were stained with H&E stain. Photomicrographs of sections were obtained using a Leica DC 300 camera and Leica IM50 Image Acquisition software fitted to a Leica DMLB microscope. Histomorphometric measurements were done using Leica Qwin-Semiautomatic image Analysis software. μCT (both 2-D and 3-D) determination of excised bones was carried out using the Sky Scan 1076 μCT scanner (Aartselaar, Belgium) using the cone-beam reconstruction software version 2.6 based on the Feldkamp algorithm (Skyscan). The bone marrow was harvested for ex vivo experiments. Both femora were dissected and separated from adjacent tissue, cleaned, and used for RNA isolation and also micro measurements. Trabecular response to A-4744/[…] treatment of OVx rats was quantified at the femur epiphysis and tibial proximal metaphysis.

[5] = femur, OVx mice, 1 mg · kg^-1 · day^-1
[6] = femur, OVx mice, 5 mg · kg^1 · day^1
[7] = tibia, OVx mice, 1 mg · kg^-1 · day^-1
[8] = tibia, OVx mice, 5 mg · kg^1 · day^1

Compound: COc1ccc(-c2coc3cc(O)cc(O)c3c2=O)cc1 [Compound 1, Biochanin A]
ALP activity (Calvarial osteoblasts): significantly increased
growth / proliferation of the osteoblastic cells (Osteoblasts): proliferation

Compound: COc1cc(-c2coc3cc(O)cc(O)c3c2=O)ccc1O [Compound 3, Pratensein or 3′-methoxygenistein]
ALP activity (Calvarial osteoblasts): significantly increased
growth / proliferation of the osteoblastic cells (Osteoblasts): proliferation

Compound: O=c1c(-c2ccc(O)cc2)coc2cc(O)cc(O)c12 [Compound 4, Genstein]
ALP activity (Calvarial osteoblasts): significantly increased
growth / proliferation of the osteoblastic cells (Osteoblasts): proliferation
increase in BMP-2 expression [1]: 5 fold

Compound: C[C@]12CC[C@@H]3c4ccc(O)cc4CC[C@H]3[C@@H]1CC[C@@H]2O [ESTRADIOL (E2), Estradiol]
mineralization of the bone marrow stromal cells [2]: unable to increase mineralization
SMI ([4]; femur): 2.41 ± 0.13
Tb. No. ([4]; femur): 0.725 ± 0.024
Tb. Sp. ([4]; femur): 0.86 ± 0.004
Tb. Th. ([4]; femur): 0.78 ± 0.01
BV/TV ([4]; femur): 59.23 ± 30.19 %
SMI ([4]; tibia): 2.24 ± 0.021
Tb. No. ([4]; tibia): 0.30 ± 0.02
Tb. Sp. ([4]; tibia): 1.29 ± 0.029
Tb. Th. ([4]; tibia): 0.10 ± 0.004
BV/TV ([4]; tibia): 3.04 ± 0.24 %

The next lines start with results.

ALP activity (Calvarial osteoblasts): significantly increased
melting point: 206 to 208 °C
Compound: COc1ccc(-c2coc3cc(O[C@@H]4OC(CO)[C@@H](O)[C@H](O)C4O)cc(O)c3c2=O)cc1 (stereo partly drawn) [Compound 6, Biochanin 7-O-glycoside]
growth / proliferation of the osteoblastic cells (Osteoblasts): proliferation

ALP activity (Calvarial osteoblasts): significantly increased
melting point: 135 to 138 °C
Compound: COc1cc(OC)c(-c2coc3cc(O[C@@H]4OC(COC5OCC(O)(CO)C5O)[C@@H](O)C(O)C4O)c(OC)c(O)c3c2=O)cc1OC (stereo partly drawn) [Compound 10]
increase in osteoblast differentiation over the control, assessed by ALP production (Calvarial osteoblasts; over the control, listed as Caviunin 7-O-[β-D-apiofuranosyl-(1→6)-β-D-glucopyranoside]): > 1.0 fold
growth / proliferation of the osteoblastic cells (Osteoblasts): proliferation
toxicity to the cells (Osteoblasts; osteoblasts, 1 pM to 1 μM for 48 h, vs vehicle control): not toxic
mineralization of the bone marrow stromal cells [2]: significantly greater mineralization
trabecular bone in tibia metaphysis ([3]; OVx mice): significantly restored
Tb.sp and SMI ([3]; femur epiphysis of OVx mice compared to OVx+vehicle mice): increased
BV/TV, Tb.Th and Tb.N ([3]; femur epiphysis of OVx mice compared with OVx+vehicle group): increased
SMI [3, 5]: 1.992 ± 0.0382
Tb. No. [3, 5]: 0.588 ± 0.034
Tb. Sp. [3, 5]: 0.529 ± 0.022
Tb. Th. [3, 5]: 0.069 ± 0.002
SMI [3, 6]: 1.615 ± 0.0434***^a
Tb. No. [3, 6]: 0.759 ± 0.061***^b
Tb. Sp. [3, 6]: 0.502 ± 0.023 ^
Tb. Th. [3, 6]: 0.070 ± 0.001 ^
BV/TV ([3]; femur, 1 mg · kg^-1 · day^-1): 4.10 ± 0.253 %
BV/TV ([3]; femur, 5 mg · kg^1 · day^1): 5.54 ± 0.739***^a %
SMI [3, 7]: 2.46 ± 0.051
Tb. No. [3, 7]: 0.222 ± 0.018
Tb. Sp. [3, 7]: 0.690 ± 0.013
Tb. Th. [3, 7]: 0.064 ± 0.0015
SMI [3, 8]: 2.43 ± 0.072
Tb. No. [3, 8]: 0.266 ± 0.014
Tb. Sp. [3, 8]: 0.671 ± 0.040
Tb. Th. [3, 8]: 0.065 ± 0.001
BV/TV ([3]; tibia, 1 mg · kg^-1 · day^-1): 1.67 ± 0.086 %
BV/TV ([3]; tibia, 5 mg · kg^1 · day^1): 1.701 ± 0.120 %
increase in BMP-2 expression [1]: 15 fold
